Consider seven molecules from patent US7705022B2, “IDO inhibitors and methods of use thereof” (Lankenau Institute for Medical Research, priority 2005, dated 2010).

Broadly, the Ki is a dissociation constant, usually derived from enzyme kinetics or from competition with a known ligand. What is called melting point is the temperature, or range, at which the solid turns liquid.

Series [1] has as its target IDO. The following applies: cited from earlier work; for type of IDO inhibition: literature.
The target in series [2] is human IDO (Homo sapiens, UniProt P14902). Kind of series: IDO inhibition assay (formation of kynurenine, read at 490 nm). The format is biochemical. Conditions: for Ki / Ki (IDO inhibition data): average of two or three trials, inhibitors tested at 200 and 400 μM, L-Trp 200 to 25 μM, N.I. = no inhibition detected.
Chain of human IDO (P14902 whole entry): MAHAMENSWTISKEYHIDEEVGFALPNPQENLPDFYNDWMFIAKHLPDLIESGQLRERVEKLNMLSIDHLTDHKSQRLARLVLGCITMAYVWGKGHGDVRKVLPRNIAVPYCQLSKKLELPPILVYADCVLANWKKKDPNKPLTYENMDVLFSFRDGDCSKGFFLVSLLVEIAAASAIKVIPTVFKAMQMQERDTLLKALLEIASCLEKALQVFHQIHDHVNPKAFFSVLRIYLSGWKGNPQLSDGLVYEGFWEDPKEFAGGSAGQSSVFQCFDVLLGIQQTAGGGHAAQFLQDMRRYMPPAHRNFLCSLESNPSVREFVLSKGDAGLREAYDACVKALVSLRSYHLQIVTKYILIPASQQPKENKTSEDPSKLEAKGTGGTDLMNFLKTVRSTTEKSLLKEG

As for `CCCCc1cc2c(cn1)[nH]c1ccccc12` [3-butyl-β-carboline], the Ki in series [1] (literature value) was 3.3 µM. In series [1], the “type of IDO inhibition” value is on record as “non-competitive”.

As for `CSC(=S)NCCc1ccccc1` [Compound 9, N-Phenethyl-S-methyl-dithiocarbamate], in series [2], the “IDO inhibitory activity in words” value is reported as “significant inhibitory activity” and the Ki was determined as 62.4 µM. Consider `CNC(=S)NCc1c[nH]c2ccccc12` [Compound 19, N-[l-(Indol-3-yl)methyl]-N′-methyl-thiourea], for which the melting point was in the range of 148 to 150 °C. Besides, in series [2], the “IDO inhibitory activity in words” value is reported as “weaker or no inhibition” and the “Ki (IDO inhibition data)” value is recorded as “N.I.^a”.

For `CSC(=O)NCc1c[nH]c2ccccc12` [Compound 21, Brassitin, reference compound], in series [2], the “IDO inhibitory activity in words” value is reported as “complete loss in inhibitory activity” and the “Ki (IDO inhibition data)” value is listed as “N.I”. Regarding `S=C(S)N1CCCC1` [pyrrolidine dithiocarbamate], in series [1] (literature report), the “effect on IDO in words” value is listed as “inhibits IDO”.

As to `c1ccc2c(c1)[nH]c1cnccc12` [β-carboline], the “type of IDO inhibition” value in series [1] is “non-competitive”. Molecule “N-(Adamant-2-yl)-S-methyl-dithiocarbamate [Compound 6]” displayed a Ki in series [2] of 180 µM.
